Measurements reported in US9249137B2, “Dicarboximide derivatives of berbamine, the preparation and use thereof” (HANGZHOU BENSHENG PHARMACEUTICAL CO., LTD., priority 2010, dated 2016).
Read-outs that look alike come from different tables or passages of the source.

Columns and labels:
[1] = tested on: red cell membrane CaM-independent Ca^2++Mg^2+ ATPase; details: relative to berbamine; cited from earlier work
[2] = tested on: normal human peripheral blood leucocytes; details: concentration range 0.5 ug/mL to 10 ug/mL; cited from earlier work
[3] = tested on: human leukemia Jurkat cells; details: cited from earlier work
[4] = tested on: MGC 803 (human gastric cancer cell); assay: MTT growth inhibition of human solid tumor cells, 72 hours; assay type: cell-based; details: compared with berbamine itself
From the text: (§1) Human solid tumor cell lines: HepG2 (human hepatocellular carcinoma, HCC), A549 (human lung cancer), MCF-7 (breast cancer), PANC-1 (pancreatic cancer), PC-3 (prostate cancer), MG63 (osteosarcomas), AGS (gastric cancer), Huh7 (human hepatoma cell), Becap37 (human breast cancer cell), Hela (human cervical cancer cell), RKO (human colon adenocarcinoma cell), SW620 (human colon adenocarcinoma cells), SW480 (human colon cancer cell), MGC 803 (human gastric cancer cell).
(§2) Obtaining 4000 well-growing human solid tumor cells and inoculating them into wells of a 96-well cell culture plate. The culture medium is DMEM High Glucose cell culture medium containing 10% fetal bovine serum. After adding the berbamine derivatives of different concentrations and mixing uniformly, the plate is placed in a carbon dioxide cell incubator (5% CO2) at 37° C. and incubated for 72 hours. Then the viable cell concentration is determined by the MTT method, and the cell viability (%) after drug treatment is calculated. In this experiment, the cell viability of control group (not treated with any compound) is set as 100%.

MCF-7 (breast cancer) = assay: as above; assay type: cell-based; details: compared with berbamine itself
From the text: as §1, §2

[5] = tested on: PANC-1 (pancreatic cancer); assay: as above; assay type: cell-based; details: compared with berbamine itself
From the text: as §1, §2

[6] = tested on: HepG2 (human hepatocellular carcinoma, HCC); assay: as above; assay type: cell-based; details: compared with berbamine itself
From the text: as §1, §2

MG63 (osteosarcomas) = assay: as above; assay type: cell-based; details: compared with berbamine itself
From the text: as §1, §2

[7] = tested on: Becap37 (human breast cancer cell); assay: as above; assay type: cell-based; details: compared with berbamine itself
From the text: as §1, §2

[8] = tested on: K562/adr (drug-resistant chronic myeloid leukemia); assay: MTT growth inhibition of leukemia cells, 72 hours; assay type: cell-based, human; details: compared with berbamine itself
From the text: (§3) Leukemia cell lines: human K562 leukemia cell line (chronic myeloid leukemia, CML), K562/adr (drug-resistant chronic myeloid leukemia (CML), NB4 (acute promyelocytic leukemia, AML), Kasumi-1 (acute myeloid leukemia M2 type, AML-M2), Jurkat (acute lymphoblastic leukemia, ALL), H9 (acute lymphoblastic leukemia, ALL).
(§4) Obtaining 6000 well-growing leukemia cells and inoculating them into wells of a 96-well cell culture plate. The culture medium is the 1640 cell culture medium containing 10% fetal bovine serum. After adding of the berbamine derivatives of different concentrations and mixing uniformly, the plate is placed in a carbon dioxide cell incubator (5% CO2) at 37° C. and incubated for 72 hours. Then the viable cell concentration is determined by the MTT method.

[9] = tested on: human K562 leukemia cell line (chronic myeloid leukemia, CML); assay: MTT growth inhibition of leukemia cells, 72 hours; assay type: cell-based; details: compared with berbamine itself
From the text: as §3, §4

[10] = tested on: RPMI8226 (multiple myeloma); assay: MTT growth inhibition of multiple myeloma cells, 72 hours; assay type: cell-based, human; details: compared with berbamine itself
Description: Multiple myeloma and lymphoma cell lines: U266 (multiple myeloma), RPMI8226 (multiple myeloma), and DOHH2 (lymphoma).
as §4, with “aforesaid tumor” for “leukemia”, “adding” for “adding of”

CaM = CaM (Homo sapiens, UniProt P0DP23); details: relative to berbamine; cited from earlier work

In the case of O-Dansyl berbamine [DB], the “inhibitory activity on red cell membrane CaM-independent Ca^2++Mg^2+ ATPase, stronger than that of berbamine” value [1] is given as 25 fold.

In the case of COc1cc2c3cc1Oc1c(OC)c(OC)cc4c1[C@@H](Cc1ccc(O)c(c1)Oc1ccc(cc1)C[C@@H]3N(C)CC2)N(C)CC4 [BBM, 6,6′,7-trimethoxy-2,2′-dimethylberbaman-12-ol], the “cytotoxicity on normal human peripheral blood leucocytes” value [2] is listed as “no obvious cytotoxicity”, the cell viability rate ([3]; drug concentration 0.5 ug/mL) is listed as 93.69% and the cell viability rate ([3]; drug concentration 10 ug/mL) is listed as 14.85%.

For COc1cc2c3cc1Oc1c(OC)c(OC)cc4c1[C@@H](Cc1ccc(OCCCCCCCN5C(=O)c6ccccc6C5=O)c(c1)Oc1ccc(cc1)C[C@@H]3N(C)CC2)N(C)CC4 [BS-BE-003, 12-O-(7-(1,3-dioxo-isoindolin-2-yl)-heptyl)-berbamine], the “improvement of anti-MGC 803 (human gastric cancer cells) activity” value [4] was ~7 fold, the “improvement of anti-MCF-7 (breast cancer) activity” value (MCF-7 (breast cancer)) was ~6 fold and the “improvement of anti-PANC-1 (pancreatic cancer) activity” value [5] was “more than 6 fold”. For the same molecule, the “improvement of anti-HepG2 (human hepatocellular carcinoma, HCC) activity” value [6] was ~5 fold, the “improvement of anti-MG63 (osteosarcomas) activity” value (MG63 (osteosarcomas)) was ~8 fold and the “improvement of anti-Becap37 (human breast cancer cell) activity” value [7] was ~5 fold. For the same molecule, the “improvement of anti-K562/adr (drug-resistant chronic myelogenous leukemia) activity” value [8] was “more than 6 fold”, the “improvement of anti-human K562 chronic myelogenous leukemia activity” value [9] was “more than 5 fold” and the “improvement of anti-RPMI8226 (multiple myeloma) cell activity” value [10] was ~6 fold.

In the case of CCOCCCCOc1ccc2cc1Oc1ccc(cc1)C[C@H]1c3cc(c(OC)cc3CCN1C)Oc1c(OC)c(OC)cc3c1[C@@H](C2)N(C)CC3 [EBB, [O-(4-ethoxy)-butyl]-berbamine], the “specific coefficient as CaM antagonist, higher than that of berbamine” value (CaM) is listed as 6.5 fold.
